14 compounds from patent US10780092B2, “Fused pyrazine derivatives useful as soluble guanylate cyclase stimulators” (Merck Sharp & Dohme Corp., priority 2016, dated 2020) can be followed below.

Assay [1] deals with sGC α1/β1 heterodimer (Homo sapiens (Human), UniProt Q02108+Q02153). The experiment in a line: Cell-based sGC functional assay (CASA assay), cGMP by HTRF. As to conditions: CHO-K1/sGC cells; for % Activation: cGMP production as percentage of maximum of compound A (set to 100%); for EC50: inflection point of cGMP production, 4P fit, read-out: IP; for Emax: CHO-K1, cGMP production as percentage of maximum of compound A (set to 100%), read-out: % Activation. In a few lines: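 CHO-K1 cells stably expressing human sGC α1/β1, with 0.5 mM IBMX, pre-incubated ±1 μM DETA-NO 30 min at 25° C, then compound 1 hr at 37° C (2.5% DMSO). cGMP by HTRF; activation as % of reference activator maximum, 4P fit giving inflection point and maximum […].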
In general terms: TR-FRET usually uses a lanthanide donor and a delayed reading to cut background.

Assay [2] concerns the target human recombinant sGC enzyme (Homo sapiens (Human), UniProt Q02108+Q02153). Kind of assay: SEC competition binding assay with [3H] Compound B radioligand. Conditions: displacement of 1.6 nM [3H] Compound B, 24 h at 37° C. In a few lines: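 Recombinant human sGC incubated with 1.6 nM [3H] Compound B and test compounds for 24 h at 37° C. Buffer: 50 mM triethanolamine pH 7.4, 3 mM MgCl2, 0.025% BSA, 2 mM DTT, 300 μM DETA/NO, 400 μM GTP, 1% DMSO. Bound ligand separated by gel filtration and counted by scintillation; non-specific binding with 1 μM Compound B; Ki from one-site fit.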

What is called Ki is a dissociation constant, usually derived from enzyme kinetics or from competition with a known ligand. For `CC1(c2ccc(Cl)c(O)c2)C(=O)Nc2nc(-c3cn4ccnc4c(Cc4ccc(F)cc4)n3)nc(NCC(O)C(F)(F)F)c21` (single isomer, unassigned) [Example 132-AB, 5-(4-Chloro-3-hydroxy-phenyl)-2-{8-[(4-fluoro-phenyl)methyl]imidazo-[1,2-a]pyrazin-6-yl}-5-methyl-4-[(3,3,3-trifluoro-2-hydroxypropyl)amino]-5,7-dihydro-6H-pyrrolo-[2,3-d]pyrimidin-6-one], in assay [1], the “% Activation” value was 95% and the EC50 worked out at 736 nM. Further, the Ki in assay [2] is 1.46 nM.

`CC1(c2cc(Cl)c(O)cn2)C(=O)Nc2nc(-c3cn4ccnc4c(Cc4ccccc4F)n3)nc(N)c21` (single isomer, unassigned) [Example 104-B, 4-Amino-5-(4-chloro-5-hydroxypyridin-2-yl)-2-{8-[(2-fluorophenyl)methyl]imidazo[1,2-a]pyrazin-6-yl}-5-methyl-5,7-dihydro-6H-pyrrolo[2,3-d]pyrimidin-6-one]: in assay [1], the Emax stood at 144% and the EC50 amounted to 813 nM. In addition, the Ki in assay [2] is 1.1 nM.

With `CC1CCC(Cc2nc(-c3nc(N)c4c(n3)NC(=O)C4(C)c3ccc(O)c(Cl)c3)cn3ccnc23)CC1` (single isomer, unassigned) [Example 120-BB, 4-Amino-5-(3-chloro-4-hydroxyphenyl)-5-methyl-2-{8-[(4-methylcyclo-hexyl)methyl]imidazo-[1,2-a]pyrazin-6-yl}-5,7-dihydro-6H-pyrrolo-[2,3-d]pyrimidin-6-one], in assay [1], the “% Activation” value is reported as 121% and the EC50 worked out at 39 nM. The inhibitory constant (Ki) in assay [2] was found to be 3.79 nM.

With `CC1(c2ccc(Cl)c(O)c2)C(=O)Nc2nc(-c3cn4ncnc4c(CCC(F)(F)C(F)(F)F)n3)nc(NCC(O)C(F)(F)F)c21` (single isomer, unassigned) [Example 133-AA, 5-(4-Chloro-3-hydroxy-phenyl)-5-methyl-2-(8-(3,3,4,4,4-pentafluoro-butyl)-[1,2,4]triazolo-[1,5-a]pyrazin-6-yl)-4-[(3,3,3-trifluoro-2-hydroxypropyl)amino]-5,7-dihydro-6H-pyrrolo-[2,3-d]pyrimidin-6-one], in assay [1], the Emax turned out to be 38% and the EC50 stood at 1290 nM. Also, in assay [2], the Ki amounted to 2.34 nM.

On to `CCCCc1nc(-c2nc(N)c3c(n2)NC(=O)C3(C)c2ccc(O)c(Cl)c2)cn2ncnc12` (stereo not drawn) [Example 74-B, 4-Amino-2-(8-butyl-[1,2,4]triazolo[1,5-a]pyrazin-6-yl)-5-(3-chloro-4-hydroxyphenyl)-5-methyl-5,7-dihydro-6H-pyrrolo[2,3-d]pyrimidin-6-one], for which, in assay [1], the Emax is 122% and the EC50 is 131 nM. Moreover, in assay [2], the Ki worked out at 6.17 nM.

With `CC1(c2cc(O)c(Cl)cn2)C(=O)Nc2nc(-c3cn4ccnc4c(CC4CCCC4)n3)nc(N)c21` (stereo not drawn) [Example 141-B, 4-amino-5-(5-chloro-4-hydroxypyridin-2-yl)-2-(8-(cyclopentylmethyl)-imidazo[1,2-a]pyrazin-6-yl)-5-methyl-5,7-dihydro-6H-pyrrolo-[2,3-d]pyrimidin-6-one], in assay [1], the Emax amounted to 99% and the EC50 is 1350 nM. Further, the Ki in assay [2] came to 0.706 nM.

For the compound `CC1(c2cc(Cl)c(O)c(Cl)c2)C(=O)Nc2nc(-c3cn4ccnc4c(CC4CCCCC4)n3)nc(N)c21` (stereo not drawn) [Example 113-A, 4-Amino-2-(8-(cyclo-hexylmethyl)imidazo-[1,2-a]pyrazin-6-yl)-5-(3,5-dichloro-4-hydroxy-phenyl)-5-methyl-5,7-dihydro-6H-pyrrolo-[2,3-d]-pyrimidin-6-one], in assay [1], the Emax was determined as 91% and the EC50 was 125 nM. Moreover, the Ki in assay [2] is 2.9 nM.

Consider `CC1(c2ccc(F)c(O)c2)C(=O)Nc2nc(-c3cn4ccnc4c(Cc4ccc(F)cc4F)n3)nc(N)c21` (stereo not drawn) [Example 22-B, 4-Amino-2-{8-[(2,4-difluorophenyl)methyl]imidazo[1,2-a]pyrazin-6-yl}-5-(4-fluoro-3-hydroxyphenyl)-5-methyl-5,7-dihydro-6H-pyrrolo[2,3-d]pyrimidin-6-one], for which, in assay [1], the Emax came out at 128% and the EC50 was determined as 74 nM. The Ki in assay [2] stood at 0.214 nM.

In the case of `CC1(c2cc(O)c(C#N)c(F)c2)C(=O)Nc2nc(-c3cn4ccnc4c(Cc4cc(F)cc(F)c4F)n3)nc(N)c21` (stereo not drawn) [Example 102-B, 4-(4-Amino-5-methyl-6-oxo-2-{8-[(2,3,5-trifluorophenyl)methyl]imidazo[1,2-a]pyrazin-6-yl}-6,7-dihydro-5H-pyrro1o[2,3-d]pyrimidin-5-yl)-2-fluoro-6-hydroxybenzonitrile], in assay [1], the Emax amounted to 73% and the EC50 worked out at 382 nM. Also, the Ki in assay [2] came out at 0.118 nM.

For the compound `CC1(c2ccc(Cl)c(O)c2)C(=O)Nc2nc(-c3cn4ccnc4c(CCCC(F)(F)F)n3)nc(N)c21` (stereo not drawn) [Example 55-A, 4-Amino-5-(4-chloro-3-hydroxyphenyl)-5-methyl-2-(8-(4,4,4-trifluorobutyl)imidazo[1,2-a]pyrazin-6-yl)-5,7-dihydro-6H-pyrrolo[2,3-d]pyrimidin-6-one], in assay [1], the Emax was 113% and the EC50 amounted to 969 nM. In assay [2], the Ki was found to be 1.21 nM.

In the case of `CC1(c2ccc(O)c(F)c2)C(=O)Nc2nc(-c3cn4ccnc4c(CCC(F)(F)C(F)(F)F)n3)nc(N3CC(O)(C(F)(F)F)C3)c21` (stereo not drawn) [Example 130-A, 5-(3-Fluoro-4-hydroxyphenyl)-4-(3-hydroxy-3-(trifluoromethyl)azetidin-1-yl)-5-methyl-2-(8-(3,3,4,4,4-pentafluorobutyl)imidazo[1,2-a]pyrazin-6-yl)-5,7-dihydro-6H-pyrrolo[2,3-d]pyrimidin-6-one], in assay [1], the Emax was 81% and the EC50 was determined as 1920 nM. Further, the Ki in assay [2] came to 7.15 nM.

For the compound `CC1(c2cccc(O)c2)C(=O)Nc2nc(-c3cn4ccnc4c(Cc4cc(F)cc(F)c4)n3)nc(N)c21` (stereo not drawn) [Example 48-B, 4-Amino-2-{8-[(3,5-difluorophenyl)methyl]imidazo[1,2-a]pyrazin-6-yl}-5-(3-hydroxyphenyl)-5-methyl-5,7-dihydro-6H-pyrrolo[2,3-d]pyrimidin-6-one], in assay [1], the Emax was determined as 114% and the EC50 came to 198 nM. Also, the inhibition constant (Ki) in assay [2] turned out to be 0.723 nM.

For the compound `CC1(c2ccc(Cl)c(O)c2)C(=O)Nc2nc(-c3cn4ncnc4c(CCC(F)(F)C(F)(F)F)n3)nc(NCC(O)C(F)(F)F)c21` (single isomer, unassigned) [Example 133-AB, 5-(4-Chloro-3-hydroxy-phenyl)-5-methyl-2-(8-(3,3,4,4,4-pentafluoro-butyl)-[1,2,4]triazolo-[1,5-a]pyrazin-6-yl)-4-[(3,3,3-trifluoro-2-hydroxypropyl)amino]-5,7-dihydro-6H-pyrrolo-[2,3-d]pyrimidin-6-one], in assay [1], the “% Activation” value stood at 48% and the EC50 worked out at 3380 nM. Also, the Ki in assay [2] was found to be 9.24 nM.

With `CC(C)CCc1nc(-c2nc(N)c3c(n2)NC(=O)C3(C)c2cccc(O)c2)cn2ccnc12` (stereo not drawn) [Example 59-B, 4-Amino-5-(3-hydroxyphenyl)-2-(8-isopentylimidazo[1,2-a]pyrazin-6-yl)-5-methyl-5,7-dihydro-6H-pyrrolo[2,3-d]pyrimidin-6-one], in assay [1], the Emax came out at 109% and the EC50 amounted to 335 nM. Also, the Ki in assay [2] is 1.72 nM.
